Results as given in patent US5482967A, “Condensed heterocyclic compounds, their production and use” (Takeda Chemical Industries, Ltd., priority 1992, dated 1996).

biological target: substance P receptor (Homo sapiens, UniProt P25103); assay: Radioligand receptor binding inhibitory assay using receptor from human lymphoblast cells (IM-9), 125I-BHSP; settings: IM-9 receptor, 25° C., 30 minutes
Description: The method of A. Margaret et al. [Molecular Pharmacology 42, 458 (1992)] was modified and used. The receptor was prepared from human lymphoblast cells (IM-9). IM-9 cells were grown in 175 cm^2 tissue culture flasks (100 ml×10) at a density approximately 2×10^5 /ml of RPMI 1640 with L-glutamine, 10% (V/V) heat inactivated fetal calf serum, penicillin (100 u/ml), and streptomycin (100 μg/ml) at 37° C. in 5% CO2 /95% air for 3 days. IM-9 cells were obtained by centrifugation at 500×g for 5 minutes at 5° C. The pellet obtained was washed once with phosphate buffer (Flow Laboratories, CAT No. 28-103-05), homogenized using Polytron homogenizer (Kinematika, Germany) in 30 ml of 50 mM Tris-HCl buffer containing 120 mM NaCl, 5 mM KCl, 2 μg/ml phenylmethyl sulfonyl fluoride, and 1 mM ethylenediamine tetra-acetic acid and then centrifuged at 40,000×g for 20 minutes. The residue was washed twice with 30 ml of buffer described above, and preserved frozen (-80° C.).
The above specimen was suspended in a reaction buffer (50 mM Tris-HCl buffer (pH 7.4), 0.02% bovine serum albumin, 1 mM phenylmethylsulfonyl fluoride, 2 μg/ml chymostatin, 40 μg/ml bacitracin, 3 mM manganese chloride) at a protein concentration of 1.5 mg/ml and a 100 μl portion of the suspension was used in the reaction. After addition of the sample and 125I-BHSP (0.46 KBq), the reaction was conducted in 0.2 ml of reaction buffer at 25° C. for 30 minutes. The amount of nonspecific binding was determined by adding substance P at a final concentration of 2×10^-6 M. After the reaction, using a cell harvester (290PHD, Cambridge Technology, Inc., England), rapid filtration was carried out through a glass filter (GF/B, Whatman, U.S.A.) to stop the reaction. After washing three times with 250 μl of 50 mM Tris-HCl buffer (pH 7.4) containing 0.02% bovine serum albumin, the radioactivity remaining on the filter was measured with a gamma counter. Before use, the filter was immersed in 0.1% polyethyleneimine for 24 hours and air-dried.

Chain of substance P receptor (P25103 whole entry): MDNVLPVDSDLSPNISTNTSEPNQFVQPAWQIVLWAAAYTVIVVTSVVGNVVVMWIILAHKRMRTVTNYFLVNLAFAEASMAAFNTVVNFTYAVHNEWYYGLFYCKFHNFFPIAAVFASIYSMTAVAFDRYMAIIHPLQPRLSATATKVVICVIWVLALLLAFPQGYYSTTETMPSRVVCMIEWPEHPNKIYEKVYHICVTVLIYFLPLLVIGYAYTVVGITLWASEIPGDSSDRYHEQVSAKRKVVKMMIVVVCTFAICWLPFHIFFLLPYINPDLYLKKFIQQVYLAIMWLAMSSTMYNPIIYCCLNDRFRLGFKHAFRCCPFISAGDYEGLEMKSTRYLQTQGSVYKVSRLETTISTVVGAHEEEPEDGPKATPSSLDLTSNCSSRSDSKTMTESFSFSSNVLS

| IC50 [nM] | SMILES |
| --- | --- |
| 22 | COc1cc(CNCc2c(-c3ccccc3)c3ccccc3c(=O)n2C)cc(OC)c1OC [Example 205, 1,2-Dihydro-2-methyl-1-oxo-4-phenyl-N-(3,4,5-trimethoxybenzyl)-3-isoquinolinemethylamine] |
| 16 | COc1ccccc1CN(C)C(=O)c1c(-c2ccccc2C)c2ccccc2c(=O)n1C [Example 104, 1,2-Dihydro-N-(2-methoxybenzyl)-N,2-dimethyl-4-(2-methylphenyl)-1-oxo-3-isoquinolinecarboxamide] |
| 8.8 | Cc1ccc(CNC(=O)c2c(-c3ccccc3)c3cc(C)c(C)cc3c(=O)n2C)cc1 [Example 127, 1,2-Dihydro-2,6,7-trimethyl-N-(4-methylbenzyl)-1-oxo-4-phenyl-3-isoquinolinecarboxamide] |
| 98 | COc1ccccc1CN(C)C(=O)c1c(-c2ccccc2)c2cc(C)c(C)cc2c(=O)n1C [Example 111, 1,2-Dihydro-N-(2-methoxybenzyl)-N,2,6,7-tetramethyl-1-oxo-4-phenyl-3-isoquinolinecarboxamide] |
| 0.14 | CN(Cc1cc(C(F)(F)F)cc(C(F)(F)F)c1)C(=O)c1[nH]c(=O)c2ccccc2c1-c1ccc(F)cc1 [Example 178, N-[3,5-Bis(trifluoromethyl)benzyl]-4-(4-fluorophenyl)-1,2-dihydro-N-methyl-1-oxo-3-isoquinolinecarboxamide] |
| 30 | Cc1ccccc1-c1c(COCc2cc(C(F)(F)F)cc(C(F)(F)F)c2)n(C)c(=O)c2ccccc12 [Example 212, 3,5-Bis(trifluoromethyl)benzyl 1,2-dihydro-2-methyl-4-(2-methylphenyl)-1-oxo-3-isoquinoline methyl ether] |
| 2 | O=C1c2c(-c3ccccc3)c3ccccc3c(=O)n2CCN1Cc1cc(C(F)(F)F)cc(C(F)(F)F)c1 [Example 240, N-[3,5-Bis(trifluoromethyl)benzyl]-1,2,3,4-tetrahydro-1,6-dioxo-11-phenyl-6H-pyrazino[1,2-b]isoquinoline] |
| 30 | COc1ccccc1CN(C)C(=O)c1c(-c2ccccc2)c2ccccc2c(=O)n1C [Example 108, 1,2-Dihydro-N-(2-methoxybenzyl)-N,2-dimethyl-1-oxo-4-phenyl-3-isoquinolinecarboxamide] |
| 86 | Cc1cc2c(-c3ccccc3)c(C(=O)NCc3ccccc3Cl)n(C)c(=O)c2cc1C [Example 131, N-(2-Chlorobenzyl)-1,2-dihydro-2,6,7-trimethyl-1-oxo-4-phenyl-3-isoquinolinecarboxamide] |
| 9.1 | CCOC(=O)CCn1c(C(=O)N(C)Cc2cc(C(F)(F)F)cc(C(F)(F)F)c2)c(-c2ccccc2)c2ccccc2c1=O [Example 180, N-[3,5-Bis(trifluoromethyl)benzyl]-2-(2-ethoxycarbonylethyl)-1,2-dihydro-N-methyl-1-oxo-4-phenyl-3-isoquinolinecarboxamide] |
| 130 | Cc1cc2c(-c3ccccc3)c(CC(=O)N(C)Cc3ccccc3Cl)n(C)c(=O)c2cc1C [Example 221, N-(2-Chlorobenzyl)-1,2-dihydro-N,2,6,7-tetramethyl-1-oxo-4-phenyl-3-isoquinolineacetamide] |
| 19 | Cc1ccccc1-c1c(C(=O)N(C)Cc2ccccc2Cl)n(C)c(=O)c2ccccc12 [Example 105, N-(2-Chlorobenzyl)-1,2-dihydro-N,2-dimethyl-4-(2-methylphenyl)-1-oxo-3-isoquinolinecarboxsmide] |
| 1.2 | CN(Cc1cc(C(F)(F)F)cc(C(F)(F)F)c1)C(=O)c1c(-c2ccc(F)cc2)c2c(F)cccc2c(=O)n1C [Example 188, N-[3,5-Bis(trifluoromethyl)benzyl]-5-fluoro-4-(4-fluorophenyl)-N,2-dimethyl-1-oxo-3-isoquinolinecarboxamide] |
| 3.4 | CN(Cc1cc(C(F)(F)F)cc(C(F)(F)F)c1)C(=O)c1c(-c2ccccc2)c2cc(Cl)ccc2c(=O)n1C [Example 174, N-[3,5-Bis(trifluoromethyl)benzyl]-6-chloro-1,2-dihydro-N,2-dimethyl-1-oxo-4-phenyl-3-isoquinolinecarboxamide] |
| 22 | CN(Cc1cc(C(F)(F)F)cc(C(F)(F)F)c1)C(=O)c1c(-c2ccccc2)c2ccccc2c(=O)n1CC[N+](C)(C)C [Example 282, N-[3,5-Bis(trifluoromethyl)benzyl]-1,2-dihydro-N-methyl-1-oxo-4-phenyl-2-[2-(N,N,N-trimethylammonium)ethyl]-3-isoquinolinecarboxamide] |
| 24 | Cn1c(C(=O)NCc2cc(C(F)(F)F)cc(C(F)(F)F)c2)c(-c2ccccc2)c2cc(Cl)ccc2c1=O [Example 173, N-[3,5-Bis(trifluoromethyl)benzyl]-6-chloro-1,2-dihydro-2-methyl-1-oxo-4-phenyl-3-isoquinolinecarboxamide] |
| 62 | CCc1ccccc1-c1c(COCc2cc(C(F)(F)F)cc(C(F)(F)F)c2)n(C)c(=O)c2ccccc12 [Example 216, 3,5-Bis(trifluoromethyl)benzyl 4-(2-ethylphenyl)-1,2-dihydro-2-methyl-1-oxo-3-isoquinolinemethyl ether] |
| 23 | CSc1nc2ccccc2c(-c2ccccc2)c1C(=O)N(C)Cc1cc(C(F)(F)F)cc(C(F)(F)F)c1 [Example 272, N-[3,5-Bis(trifluoromethyl)benzyl]-N-methyl-2-methylthio-4-phenyl-3-quinolinecarboxamide] |
| 4.4 | CN(Cc1cc(C(F)(F)F)cc(C(F)(F)F)c1)C(=O)c1c(-c2ccccc2C(F)(F)F)c2ccccc2oc1=O [Example 256, N-[3,5-Bis(trifluoromethyl)benzyl]-N-methyl-2-oxo-4-(2trifluoromethylphenyl)-2H-1-benzopyran-3-carboxamide] |
| 36 | CN(Cc1cc(C(F)(F)F)cc(C(F)(F)F)c1)C(=O)[C@@H]1OC(=O)c2ccccc2[C@@H]1c1ccccc1 (relative stereo) [Example 281, 3,4-cis-N-[3,5-Bis(trifluoromethyl)benzyl]-3,4-dihydro-N-methyl-1-oxo-4-phenyl-1H-2-benzopyran-3-carboxamide] |
| 30 | Cc1cc(C)cc(CN(C)C(=O)c2c(-c3ccccc3C)c3ccccc3c(=O)n2C)c1 [Example 106, 1,2-Dihydro-N-(3,5-dimethylbenzyl)-N,2-dimethyl-4-(2-methylphenyl)-1-oxo-3-isoquinolinecarboxamide] |
| 8.6 | CN(Cc1cc(C(F)(F)F)cc(C(F)(F)F)c1)C(=O)c1oc(=O)c2ccc(Cl)cc2c1-c1ccccc1 [Example 242, N-[3,5-Bis(trifluoromethyl)benzyl]-6-chloro-N-methyl-1-oxo-4-phenyl-1H-2-benzopyran-3-carboxamide] |
| 38 | Cc1cc2c(-c3ccccc3)c(C(=O)NCc3cccc(Cl)c3)n(C)c(=O)c2cc1C [Example 130, N-(3-Chlorobenzyl)-1,2-dihydro-2,6,7-trimethyl-1-oxo-4-phenyl-3-isoquinolinecarboxamide] |
| 2 | CN(Cc1cc(C(F)(F)F)cc(C(F)(F)F)c1)C(=O)c1c(-c2ccccc2C(F)(F)F)c2ccccc2c(=O)n1C [Example 182, N-[3,5-Bis(trifluoromethyl)benzyl]-1,2-dihydro-N,2-dimethyl-1-oxo-4-(2-trifluoromethylphenyl)-3-isoquinolinecarboxamide] |
| 10 | CNc1nc(C(=O)N(C)Cc2cc(C(F)(F)F)cc(C(F)(F)F)c2)c(-c2ccccc2)c2ccccc12 [Example 278, N-[3,5-Bis(trifluoromethyl)benzyl]-N-methyl-1-methylamino-4-phenyl-3-isoquinolinecarboxamide] |
| 1.2 | CN(Cc1cc(C(F)(F)F)cc(C(F)(F)F)c1)C(=O)c1c(-c2ccccc2)c2ccccc2c(=O)n1C [Example 157, N-[3,5-Bis(trifluoromethyl)benzyl]-1,2-dihydro-N,2-dimethyl-1-oxo-4-phenyl-3-isoquinolinecarboxamide] |
| 2 | CN(Cc1cc(C(F)(F)F)cc(C(F)(F)F)c1)C(=O)c1c(-c2ccccc2Cl)c2ccccc2n(C)c1=O [Example 262, N-[3,5-Bis(trifluoromethyl)benzyl]-4-(2-chlorophenyl)-1,2-dihydro-N,1-dimethyl-2-oxo-3-quinolinecarboxamide] |
| 1.3 | COc1ccccc1-c1c(C(=O)N(C)Cc2cc(C(F)(F)F)cc(C(F)(F)F)c2)c(=O)oc2ccccc12 [Example 255, N-[3,5-Bis(trifluoromethyl)benzyl]-4-(2-methoxyphenyl)-N-methyl-2-oxo-2H-1-benzopyran-3-carboxamide] |
| 0.61 | CN(Cc1cc(C(F)(F)F)cc(C(F)(F)F)c1)C(=O)c1oc(=O)c2ccccc2c1-c1ccc(F)cc1 [Example 246, N-[3,5-Bis(trifluoromethyl)benzyl]-4-(4-fluorophenyl)-N-methyl-1-oxo-1H-2-benzopyran-3-carboxamide] |
